Assay results reported in patent USRE47388E1, “Agents for alleviating side effects” (TAIHO PHARMACEUTICAL CO., LTD., priority 1999, dated 2019).
Counter-ions that a name gives are not always drawn. Marks after values point to notes of the source that are not given here.

How the values were obtained:
IL-6 = assay: Test 4: IL-6 level in the small intestine and the large intestine (ELISA); format: in vivo, ICR mice; conditions: for Level of inflammatory cytokine IL-6 in the small intestine and the large intestine (in words): FTD 200 mg/kg/day eight consecutive days vs control, Compound 1 94 mg/kg incorporated; for Large intestine IL-6 / Small intestine IL-6: day 9, oral, eight days, FTD 200 mg/kg/day, Compound 1 94 mg/kg/day in the mixture, alone 100 mg/kg/day
Protocol: (§1) To each rat of the control group, a 0.5% HPMC solution was perorally administered for eight consecutive days. In order to observe the action of Compound 1 per se, Compound 1-administration alone groups were provided for administration of 100 mg/kg/day. […] Immediately after the collected region were washed with saline, the portions were frozen to preserve at −80° C. Each sample preparation was diluted with a 0.05M phosphate buffer (pH 7.4) so as to attain a tissue concentration of approximately 10% (W/V), and the resultant mixture was homogenized, subjected to sonication, and subjected twice to freeze-thawing. The thus-treated matter was centrifuged at 12,000 g for 15 minutes, and the supernatant was collected to serve as a sample for cytokine measurement. Cytokines, i.e., IL-1β and mouse IL-6 were measured by use of an ELISA kit for mouse (product of Endogen, Inc.), and the results are shown in Table 4. Test results were statistically analyzed in accordance with the Dunnett method ((*; p<0.05) and (**; p<0.01)).

[1] = Test 4: measurement of body weight change after FTD; format: in vivo, ICR mice; conditions: for Weight change ratio (%): body weight changes/body weight before administration x100, eight days, alone 100 mg/kg/day; for Weight change ratio (%) / Body weight change: oral, FTD 200 mg/kg/day, Compound 1 94 mg/kg/day in the mixture; for Body weight change: day 0 to day 9, eight consecutive days, Compound 1 alone 100 mg/kg/day
Protocol: 5-Trifluoromethyl-2′-deoxyuridine (hereinafter abbreviated as FTD) was suspended in a 0.5% HPMC solution so as to obtain a 20 mg/ml suspension, and the suspension was stirred by use of a stirrer for about 20 minutes at room temperature.
FTD was suspended in a 0.5% HPMC solution so as to obtain a 20 mg/ml suspension. To the suspension, Compound 1 was added so as to attain a concentration of 9.4 mg/ml. The resultant mixture was stirred by use of a stirrer for about 20 minutes at room temperature, and then subjected to sonication under ice cooling, to thereby obtain a test solution containing FTD and Compound 1 (mol ratio 1:0.5).
Compound 1 was suspended in a 0.5% HPMC solution so as to obtain a 10 mg/ml suspension, and the suspension was stirred by use of a stirrer for about 20 minutes at room temperature. The suspension was subjected to sonication for 5 minutes under ice cooling, to thereby obtain a test solution containing Compound 1 for administration of 100 mg/kg/day.
Eight-week-old male ICR rats were divided into a control group and treatment groups so that the average body weights of the groups and the standard deviations (S.D.) of the groups were made to be as close to one another as possible. To each rat of the FTD treatment alone groups, the FTD solution of 200 mg/kg/day (1.0 ml) was orally administered once a day for eight consecutive days (per 100 g body weight of each rat). To each rat of combination-administration treatment groups, a mixture solution of FTD and Compound 1 was perorally administered once a day for eight consecutive days at a daily dose of 1.0 ml per 100 g of body weight. To each rat of the control group, a 0.5% HPMC solution was perorally administered for eight consecutive days. In order to observe the action of Compound 1 per se, Compound 1-administration alone groups were provided for administration of 100 mg/kg/day.
The rats were weighed at the previous day of the first administration (day 0) and the following day of the day of final administration (day 9), and the ratio of body weight ratio was calculated by use of the following equation. Ratio of body weight change (%)=body weight changes/body weight before administration×100

IL-1β = assay: Test 4: IL-1β level in the large intestine (ELISA); format: in vivo, ICR mice; conditions: for Level of IL-1β in the large intestine (in words): FTD 200 mg/kg/day eight consecutive days vs control, Compound 1 94 mg/kg incorporated; for Large intestine IL-1β: day 9, oral, eight days, FTD 200 mg/kg/day, Compound 1 94 mg/kg/day in the mixture, alone 100 mg/kg/day
Protocol: as §1

[2] = Test 2: delaying effect on diarrhea occurrence caused by CPT-11; format: in vivo, Donryu male rats; conditions: CPT-11 60 mg/kg/day i.v. every day for five days; Compound 1 30 mg/kg/day oral concomitantly
Protocol: Irinotecan hydrochloride (hereinafter referred to as “CPT-11”; KAMPTO Injection 100 mg/5 ml; product of Yakult Co., Ltd.) was diluted with saline so as to obtain a 6 mg/ml solution for administration at 60 mg/kg/day.
Compound 1 was suspended in a 0.5% hydroxypropylmethyl cellulose solution (hereinafter referred to as “0.5% HPMC”) so as to obtain a 3 mg/ml suspension, and the suspension was stirred by use of a stirrer for about 20 minutes at room temperature. The suspension was subjected to ultrasound treatment for 5 minutes while being cooled with ice, to thereby obtain a test solution containing Compound 1 for administration at 30 mg/kg/day.
Five-week-old Donryu male rats were divided into a control group and treatment groups so that the average body weights of the groups and the standard deviations (S.D.) of the groups were made to be as close to one another as possible. To each rat of the anti-tumor-agent treatment alone groups, the CPT-11 solution was intravenously administered once a day for five consecutive days at a daily dose of 1.0 ml per 100 g of body weight. […] The number of rats which had diarrhea at least once during the test period were counted as “diarrhea-rats”. The accumulated occurrence of diarrhea was calculated by use of the following equation: accumulated occurrence of diarrhea (%)=(the number of rats which had diarrhea/the total number of rats)×100

[3] = Test 3: suppression of body weight increase in tumor-bearing rats; format: in vivo, Donryu male rats; conditions: for Suppression of body weight (in words): CDDP alone 6 mg/kg, Compound 1 for seven consecutive days with CDDP; for Body weight change: day 0 to day 8; for Weight change ratio (%): ratio of suppression of body weight increase vs control
Protocol: CDDP was suspended in saline so as to obtain a 0.6 mg/ml suspension, and the suspension was stirred by use of a stirrer for about 20 minutes at room temperature. The suspension was subjected to sonication for 5 minutes while being cooled with ice to thereby obtain a test solution containing CDDP for administration at 6.0 mg/kg/day.
Compound 1 was suspended in 0.5% HPMC so as to obtain a 3 mg/ml suspension, 10 mg/ml suspension, and 30 mg/ml suspension, respectively, and each suspension was stirred by use of a stirrer for about 20 minutes at room temperature. Each suspension was subjected to sonication for 5 minutes while being cooled with ice to thereby obtain test solutions containing Compound 1 for administration at 30 mg/kg/day, 100 mg/kg/day, and 300 mg/kg/day, respectively.
Five-week-old Donryu male rats were divided into a control group and treatment groups so that the average body weights of the groups and the standard deviations (S.D.) of the groups were made to be as close to one another as possible. Yoshida sarcoma (2×10^4 cells/0.1 ml/rat) was subcutaneously transplanted on the back of each rat, and administration was started the day following the day of transplant. To each rat of the CDDP treatment alone groups, the CDDP solution of 6.0 mg/kg was intravenously administered on the first administration day, and a 0.5% HPMC solution was orally administered for seven consecutive days at a daily dose of 1.0 ml per 100 g of body weight. […] To each rat of the control group, saline was intravenously administered on the first administration day in a dose of 1.0 ml per 100 g of body weight. Simultaneously, a 0.5% HPMC solution was orally administered once a day for five consecutive days at a daily dose of 1.0 ml per 100 g of body weight. In order to observe the action of Compound 1 per se, Compound-1-administration alone groups were provided for administration at 30 mg/kg/day, 100 mg/kg/day, and 300 mg/kg/day, respectively.
The rats were weighed on the day of transplantation (day 0) and the day following the day of final administration (day 8), and the suppression ratio of body weight increase was calculated by use of the following equation. Ratio of suppression of body weight increase (%)=(1−body weight changes of one treatment group/body weight changes of the control group)×100

Yoshida sarcoma = assay: Test 3: action on anti-tumor action of cancer drug (tumor weight); format: in vivo, Donryu male rats; conditions: for Tumor weight: day 8; for Anti-tumor action / inhibition of tumor weight (in words): CDDP alone 6 mg/kg, Compound 1 for seven consecutive days with CDDP; for Inhibition ratio (%): tumor shrinkage vs control
[4] = Test 1: alleviating effect on suppression of body weight increase caused by 5-FU or CDDP
Protocol: 5-Fluorouracil (hereinafter referred to as “5-FU”) was suspended in saline so as to obtain a 2.0 mg/ml suspension, and the suspension was stirred by use of a stirrer for about 20 minutes at room temperature. The suspension was treated with sonication for 5 minutes while being cooled with ice, to thereby obtain a test solution containing 5-FU for administration at 20 mg/kg/day.
Cisplatin (hereinafter referred to as “CDDP”) was suspended in saline so as to obtain a 0.1 mg/ml suspension, and the suspension was stirred by use of a stirrer for about 20 minutes at room temperature. The suspension was treated with sonication for 5 minutes while being cooled with ice, to thereby obtain a test solution containing CDDP for administration at 1.0 mg/kg/day.
Compound 1 was suspended in water so as to obtain a 10 mg/ml suspension, and the suspension was stirred by use of a stirrer for about 20 minutes at room temperature. The suspension was treated with sonication for 5 minutes while being cooled with ice, to thereby obtain a test solution containing Compound 1 for administration at 100 mg/kg/day.
Five-week-old Donryu male rats were divided into a control group and treatment groups so that the average body weights of the groups and the standard deviations (S.D.) of the groups were made to be as close to one another as possible. To each rat of the anti-tumor-agent treatment alone groups, the 5-FU solution or the CDDP solution was intravenously administered once a day for four consecutive days at a daily dose of 1.0 ml per 100 g of body weight. Simultaneously, water was orally administered once a day for four consecutive days at a daily dose of 1.0 ml per 100 g of body weight. To each rat of the combination-administration treatment groups, the 5-FU solution or the CDDP solution was intravenously administered once a day for four consecutive days at a daily dose of 1.0 ml per 100 g of body weight. Simultaneously, to each rat of the combination-administration groups, the solution of Compound 1 was orally administered once a day for four consecutive days at a daily dose of 1.0 ml per 100 g of body weight. To each rat of the control group, saline was intravenously administered once a day for four consecutive days at a daily dose of 1.0 ml per 100 g of body weight. Simultaneously, water was orally administered once a day for four consecutive days at a daily dose of 1.0 ml per 100 g of body weight.
The rats were weighed prior to initiation of administration (day 1) and on the day following the day of final administration (day 5), and the ratio of suppression of body weight increase was calculated by use of the following equation.
Test results were statistically analyzed using the Student's “T” test. […]

[5] = CDDP 6.0 mg/kg i.v. on first day + vehicle oral 7 days
[6] = Compound 1 30 mg/kg/day oral 7 days, with CDDP 6.0 mg/kg i.v. day 1 or saline
[7] = Compound 1 100 mg/kg/day oral 7 days, with CDDP 6.0 mg/kg i.v. day 1 or saline
[8] = Compound 1 300 mg/kg/day oral 7 days, with CDDP 6.0 mg/kg i.v. day 1 or saline

Which “Level of inflammatory cytokine IL-6 in the small intestine and the large intestine (in words)” value (IL-6) does the source give for `O=c1[nH]c(=O)n([C@H]2C[C@H](O)[C@@H](CO)O2)cc1C(F)(F)F` [FTD, 5-Trifluoromethyl-2′-deoxyuridine, reference compound] here?
Its value is “high level”.

And the “Large intestine IL-6” value (IL-6)?
The value was 118.0 ± 47.6** pg/mg protein.

And the “Small intestine IL-6” value (IL-6)?
Its value is 95.5 ± 19.2** pg/mg protein.

What about the “Weight change ratio (%)” value [1] of the same compound?
The value was −17.6%.

And the “Body weight change” value [1]?
Its value is -1.6 ± 4.7 g.

And the “Decrease ratio of the body weight at the following day of the final administration to that before administration” value ([1]; solo FTD 200 mg/kg daily for eight consecutive days)?
Its value is “approximately 18%”.

What about the “Level of IL-1β in the large intestine (in words)” value (IL-1β) of the same compound?
The value was “elevated”.

What about the “Large intestine IL-1β” value (IL-1β) of the same compound?
The value was 77.3 ± 42.1** pg/mg protein.

With `CCc1c2c(nc3ccc(OC(=O)N4CCC(N5CCCCC5)CC4)cc13)-c1cc3c(c(=O)n1C2)COC(=O)[C@]3(O)CC` [CPT-11, Irinotecan hydrochloride, reference compound] as the compound, how does the “Accumulated occurrence of diarrhea (FIG. 1, in words)” value [2] read?
Its value is “diarrhea occurred after the third administration day”.

Which “Suppression of body weight (in words)” value [3] does the source give for `[NH2][Pt]([NH2])([Cl])[Cl]` [CDDP, Cisplatin, reference compound] here?
The value was “Significant inhibition”.

What about the “Body weight change” value [3, 5] of the same compound?
The value was -19.4 ± 8.6 g.

And the “Weight change ratio (%)” value [3, 5]?
The value was 174.9%.

What about the “Tumor weight” value (Yoshida sarcoma; CDDP 6.0 mg/kg i.v. on first day + 0.5% HPMC vehicle oral 7 days) of the same compound?
The value was 0.162 ± 0.155 g.

What about the “Anti-tumor action / inhibition of tumor weight (in words)” value (Yoshida sarcoma) of the same compound?
Its value is “Significant inhibition of tumor weight”.

And the “Inhibition ratio (%)” value (Yoshida sarcoma; [5])?
Its value is 75.7%.

For `O=c1[nH]cc(F)c(=O)[nH]1` [Compound 5-FU, 5-Fluorouracil], which “Suppression of body weight increase (in words)” value ([4]; 5-FU 20 mg/kg/day or CDDP 1.0 mg/kg/day for 4 consecutive days, Compound 1 100 mg/kg/day in combination with the anti-tumor agent) is on record?
The value was “Suppression of body weight increase was confirmed”.

And the “Body weight change” value ([4]; day 1 to day 5, 5-FU 20 mg/kg/day or CDDP 1.0 mg/kg/day i.v., Compound 1 100 mg/kg/day oral, four consecutive days, mean ± S.D.)?
The value was 15.6 ± 3.6 g.

And the “Suppression ratio (%) (ratio of suppression of body weight increase)” value ([4]; vs control group, 5-FU 20 mg/kg/day or CDDP 1.0 mg/kg/day i.v., Compound 1 100 mg/kg/day oral, four consecutive days)?
The value was 46.7%.

For `Cl.N=C1CCCN1Cc1[nH]c(=O)[nH]c(=O)c1Cl` [Compound 1, 5-Chloro-6-(2-iminopyrrolidin-1-yl)methyl-2,4-(1H,3H)-pyrimidinedione Hydrochloride], which “Level of inflammatory cytokine IL-6 in the small intestine and the large intestine (in words)” value (IL-6) is on record?
Its value is “inhibited”.

And the “Large intestine IL-6” value (IL-6)?
The value was 10.7 ± 4.7 pg/mg protein.

What about the “Small intestine IL-6” value (IL-6) of the same compound?
The value was 19.8 ± 9.9 pg/mg protein.

And the “Accumulated occurrence of diarrhea (FIG. 1, in words)” value [2]?
The value was “delayed”.

What about the “Occurrence of diarrhea, combination-administration groups vs anti-tumor-agent-administration alone groups” value ([4]; Compound 1 100 mg/kg/day with 5-FU 20 mg/kg/day or CDDP 1.0 mg/kg/day) of the same compound?
The value was “lower”.

And the “Decrease in the body weight caused by FTD (in words)” value ([1]; Compound 1 94 mg/kg/day incorporated with FTD 200 mg/kg/day)?
Its value is “protected”.

And the “Weight change ratio (%)” value [1]?
The value was 6.8%.

What about the “Body weight change” value [1] of the same compound?
Its value is 2.4 ± 1.1 g.

What about the “Suppression of body weight (in words)” value [3] of the same compound?
Its value is “suppression of body weight was alleviated”.

What about the “Body weight change” value [3, 6] of the same compound?
Its value is 29.3 ± 10.2 g.

And the “Body weight change” value [3, 7]?
The value was 23.9 ± 6.6 g.

And the “Body weight change” value [3, 8]?
The value was 28.1 ± 6.0 g.

And the “Weight change ratio (%)” value [3, 6]?
The value was −13.1%.

And the “Weight change ratio (%)” value [3, 7]?
Its value is 7.7%.

What about the “Weight change ratio (%)” value [3, 8] of the same compound?
The value was −8.5%.

What about the “Anti-tumor action / inhibition of tumor weight (in words)” value (Yoshida sarcoma) of the same compound?
The value was “without affecting the anti-tumor action”.

What about the “Tumor weight” value (Yoshida sarcoma; [6]) of the same compound?
Its value is 0.787 ± 0.307 g.

And the “Tumor weight” value (Yoshida sarcoma; [7])?
The value was 0.816 ± 0.329 g.

What about the “Tumor weight” value (Yoshida sarcoma; [8]) of the same compound?
The value was 0.829 ± 0.281 g.

What about the “Inhibition ratio (%)” value (Yoshida sarcoma; [6]) of the same compound?
The value was −18.1%.

And the “Inhibition ratio (%)” value (Yoshida sarcoma; [7])?
The value was −22.4%.

What about the “Inhibition ratio (%)” value (Yoshida sarcoma; [8]) of the same compound?
The value was −24.5%.

And the “Level of IL-1β in the large intestine (in words)” value (IL-1β)?
The value was “inhibited”.

What about the “Large intestine IL-1β” value (IL-1β) of the same compound?
The value was 23.7 ± 4.6 pg/mg protein.
